# Measured values: patent EP2229940B1, “Pharmaceutical composition presenting anti-inflammatory and anti-histaminic properties” (Bioxtract S.A., priority 2009, dated 2010)
# Columns and labels:
# [1] = 42 mg or 84 mg of oral curcumin; even under metabolised forms; cited from earlier work
# [2] = Solubility of curcumin and quercetin in phosphate buffer pH 6.8; format: physicochemical; settings: 0.2 µm filter
# Description: Following the same protocol, the same amount of quercetin (150 mg) is solubilized in phosphate buffer pH 6.8. […] Solubilized quercetin: […] of the initial dose.
"Solubilized curcumin ([2]; 84 mg curcumin in 900 ml phosphate buffer pH 6.8, 1 hour at 37°C)","Solubilized quercetin ([2]; 900 ml phosphate buffer pH 6.8, 1 h at 37°C)",SMILES,oral bioavailability of low dosages of curcumin [1]
0.004 % of the initial dose,–,"COc1cc(C=CC(=O)CC(=O)C=Cc2ccc(O)c(OC)c2)ccc1O [curcumin, 1,7-bis(4-hydroxyl-3-methoxyphenyl)-1,6-heptadiene-3,5-dione]",not bioavailable at all
–,4 % of the initial dose,"O=c1c(O)c(-c2ccc(O)c(O)c2)oc2cc(O)cc(O)c12 [quercetin, Quercetin]",–
